Experimental data taken from patent US3960834A, “Method for preparing 3-(methylmercaptol) propylaminobleomycin” (priority 1973, dated 1976).
Read-outs that look alike come from different tables or passages of the source.

Legend:
[1] = tested on: Ehrlich ascites carcinoma cells; details: for Mean surviving days: intraperitoneally once a day for 10 days, observed up to 50 days; for ED50: Table 3, maximum dose level at which they survive 100 to 200% of the survival days for the control; for LD50 /ED50 = Index: mouse, in vivo, ip
[2] = tested on: Mycobacterium smegmatis 607; experiment: antimicrobial activity against Mycobacterium smegmatis 607; type: cell-based
ICR mouse bearing cancer = tested on: ICR mouse bearing cancer
Protocol: Mice of ICR/JCL strain (male 5 weeks old, five for one group) are inoculated with Ehrlich ascites carcinoma cells in a dose of 2 millions/mouse.
LD50 is calculated by Behrens-Karber's method from the group poisoned at high dose levels.

solubility = type: physicochemical
[3] = tested on: Ehrlich ascites carcinoma cells; experiment: animal or person; details: Mus musculus, ip
[4] = ICR mouse bearing cancer, daily intraperitoneal administration for 10 days
[5] = Table 3, Behrens-Karber's method, from the group poisoned at high dose levels

For “3-(S,S-dimethylmercapto)propylaminobleomycin [Bleomycin A2, reference compound]”, the Mean surviving days ([1]; 0.19 mg/kg) was 13.6 days, the Mean surviving days ([1]; 0.39 mg/kg) was 15.4 days and the Mean surviving days ([1]; 0.78 mg/kg) was 17.2 days. The Mean surviving days ([1]; 1.56 mg/kg) was > 33 days, the Mean surviving days ([1]; 3.12 mg/kg) was > 36 days and the Mean surviving days ([1]; 6.25 mg/kg) was > 28.4 days. For the same compound, the Mean surviving days ([1]; 12.5 mg/kg) was 25 days, the Mean surviving days ([1]; 25 mg/kg) was 10.8 days and the ED50 [1] was 0.78. The “LD50 /ED50 = Index” value [1] was 12, the “antimicrobial activity (potency)” value [2] was 1000 mcg potency/mg and the LD50 (ICR mouse bearing cancer; [4]) was 12.5 mg/kg. For the same compound, the LD50 (ICR mouse bearing cancer; [5]) was 9.4.
`CSCCCNC(=O)c1csc(-c2csc(CCNC(=O)[C@@H](NC(=O)[C@@H](C)[C@H](O)[C@@H](C)NC(=O)[C@@H](NC(=O)c3nc([C@H](CC(N)=O)NC[C@H](N)C(N)=O)nc(N)c3C)[C@@H](O[C@@H]3O[C@@H](CO)[C@@H](O)[C@H](O)[C@@H]3O[C@H]3O[C@H](CO)[C@@H](O)[C@H](OC(N)=O)[C@@H]3O)c3cnc[nH]3)[C@@H](C)O)n2)n1` [Demethylbleomycin A2, 3-(methylmercapto)propylaminobleomycin] gave a Mean surviving days ([1]; 0.19 mg/kg) of 20.2 days, a Mean surviving days ([1]; 0.39 mg/kg) of 24.0 days and a Mean surviving days ([1]; 0.78 mg/kg) of 31.2 days. The Mean surviving days ([1]; 1.56 mg/kg) was 28.6 days, the Mean surviving days ([1]; 3.12 mg/kg) was 34.6 days and the Mean surviving days ([1]; 6.25 mg/kg) was 49 days. The Mean surviving days ([1]; 12.5 mg/kg) was 40.5 days, the Mean surviving days ([1]; 25 mg/kg) was 29.0 days and the ED50 [1] was 0.78. The “LD50 /ED50 = Index” value [1] was 23, the “antimicrobial activity (potency)” value [2] was 2,458 mcg potency/mg and the LD50 (ICR mouse bearing cancer; [4]) was 22.5 mg/kg. The LD50 (ICR mouse bearing cancer; [5]) was 18.0, the “toxicity compared with bleomycin A2” value (ICR mouse bearing cancer; from LD50, ICR mouse bearing cancer, daily intraperitoneal for 10 days) was “decreased to about half as much” and the “solubility in organic solvents” value (solubility; ethanol, propanol, butanol, ethyl acetate, ether, acetone, petroleum ether, benzene, and toluene) was “insoluble”. For the same compound, the “solubility in water and methanol” value (solubility; water and methanol) was “soluble”.
Compound `CO[C@@]12[C@H](COC(N)=O)C3=C(C(=O)C(C)=C(N)C3=O)N1C[C@@H]1N[C@@H]12` [Mitomycin C] has an ED50 [3] of 0.39 mg/kg.
